Assay results from a melting point compilation (Tetko et al.; mined from patent text by program, amines drawn as free bases though some values may be those of a salt).

Point of comparison: `CC(C)c1[nH]n(-c2c(Cl)cncc2Cl)c2nc(Cc3ccc(CN4CCCC4)c(O)c3)nc(=O)c1-2`, melting point 209 °C. Against it:
- CC(=O)OC1CSC(Oc2cccc(-c3cncc(F)c3)c2)C(OC(C)=O)C1OC(C)=O (configuration not stated) — lower, 135 °C
- COc1nc2nc(C=C3C(=O)N4C(C(=O)O)=CSC34)cn2c2c1CCC2 (configuration not stated) — higher, > 250 °C
- C#CCN(c1ccc(C(=O)OC(C)(C)C)cc1)C1CCc2cc3nc(C)[nH]c(=O)c3cc21 (racemic) — higher, 244 to 246 °C
- CC(=O)NC[C@H]1CN(c2ccc(N3CCC(n4cc(CO)nn4)CC3)c(F)c2)C(=O)O1 — lower, 160 to 162 °C
- CC(=O)Nc1ccc(OCC2CCC=CO2)cc1 (configuration not stated) — lower, 114 to 116 °C
- CCOC(=O)c1c(-c2cccc([N+](=O)[O-])c2)cc(-c2ccccc2)nc1C — lower, 110 to 112 °C
- CC1=CCC(NC(=O)NS(=O)(=O)c2ccc(CCNC(=O)N3CCC(C)CC3=O)cc2)CC1 (configuration not stated) — lower, 173 to 175 °C
- O=c1oc(-c2ccccc2)cc(O)c1C(CCCSc1ccccc1)Sc1ccccc1 (configuration not stated) — lower, 75 to 77 °C
- O=C(C=Cc1ccccc1)Nc1ccc(C(c2ccc(Cl)cc2)n2ccnc2)cc1 (configuration not stated) — higher, 244 °C
- CCCC(=O)c1noc2ccccc12 — lower, 33 to 35 °C
- COc1ccc(S(=O)(=O)Nc2c(Cl)cccc2Cl)c2c1[nH]c1ccccc12 — lower, 201 to 205 °C
- N#CSc1nccnc1Cl — lower, 70 to 71 °C
- O=C(O)C1Cc2cc(-c3ccccc3)ccc2O1 (configuration not stated) — lower, 186 to 187 °C
- O=C1c2sc3ccccc3c2C(=O)c2sc3ccccc3c21 — higher, 315 °C
- CCCCC(=O)NCCc1c(OC)ccc2ccccc12 — lower, 69 to 75 °C
- O=C(O)c1cn(C2CC2)c2cc(Cl)c(F)c(Cl)c2c1=O — higher, 277 to 278 °C
- O=C(Nc1ccc(OCc2ccncc2)c2ccccc12)c1cc(F)cc(OC2CCOCC2)c1 — lower, 182 to 184 °C
- CN(C)C(=O)CC1(C)OCCc2c1[nH]c1ccccc21 (configuration not stated) — lower, 149 to 151 °C
- CCCCN(CC)c1nc(C)nc2c1C(C)(C)C(O)N2c1c(C)cc(C)cc1C (configuration not stated) — lower, 142 to 145 °C
- COc1cc(S(C)(=O)=O)ccc1-c1nc(C)c(-c2cccnc2)[nH]1 — lower, 115 to 118 °C
- Brc1ccc2c(CCN3CCCCC3)c(-c3ccccc3)[nH]c2c1 — higher, > 230 °C
- O=C(O)Cc1ccc(OCc2ccccc2)c(C(=O)O)c1 — lower, 143 to 145 °C
- CSC(=S)N1CCN(Cc2cc(OC(C)=O)c(OC(C)=O)c(OC(C)=O)c2)CC1 — lower, 141 to 143 °C
- COC=C1C(=O)NC(=O)c2ccc(OC)cc21 — higher, 245 to 247 °C
- COC(=O)CCC(=O)c1ccc(-c2ccc(Cl)c(Cl)c2)cc1 — lower, 120 to 121 °C
- Cn1c(C(F)(F)F)cc(=O)n(-c2cc(Oc3ncccn3)c(Cl)cc2F)c1=O — lower, 192 to 194 °C
- Cc1cc(-c2ccc(Cl)cc2)nc2c(C#Cc3ccc(C(C)(C)O)cc3)cnn12 — lower, 112 to 115 °C
- COCC(C)(C)c1cc(N)no1 — lower, 96 to 99 °C
- CN1CCCN(c2cc3ccccc3c(=O)[nH]2)CC1 — lower, 171 to 172 °C
- N#CCc1ccc(-c2nc3ccccc3o2)cc1N — lower, 198 to 199 °C
- COc1cc(OCCCN2CCc3cc(OC)c(OC)cc3C2)ccc1NC(=O)c1cccc2c(=O)c3cccc(F)c3[nH]c12 — lower, 152 °C
- COC=C(C(=O)OC)c1ccccc1CC(=O)c1ccccc1Cl — lower, 70 to 75 °C
- Cc1ccc(C(=O)N2CCc3cc(C(=O)NO)ccc3C2)cc1 — lower, 105 to 108 °C
- Fc1cccc(F)c1CCNC(=S)Nc1ccccn1 — lower, 157 to 160 °C
- Cn1cnc(=O)[nH]c1=O — higher, 213 to 214 °C
- FC(F)(F)c1ccc(-c2ncc(CCl)s2)cc1 — lower, 55 to 57 °C
- O=C1NCCc2c(-c3cccc(C(F)(F)F)c3)[nH]c3cccc1c23 — higher, 212 to 214 °C
- CS(=O)(=O)c1ccc(C(=O)Nc2ccc(Cl)c(-c3ncc(C(=O)NO)cn3)c2)c(Cl)c1 — lower, 170 to 172 °C
- Nc1c(NCCSCc2csc(CN3CCCCC3)c2)c(=O)c1=O — higher, 236 to 238 °C
- Fc1cccc(F)c1-c1nccc(-c2ccc(Br)cc2)n1 — lower, 130 to 131 °C
- O=Cc1ccc(N2CCC(O)CC2)cc1 — lower, 115 to 118 °C
- O=C(c1ccc(F)cc1)C1CCN(CCCc2nc3ccccc3c(=O)[nH]2)CC1 — lower, 184 °C
- COC(=O)c1c(C(F)(F)C(F)(F)F)[nH]c(C(F)(F)C(F)(F)F)c1C(=O)OC — lower, 68 to 71 °C
- O=C(O)Cc1nc(-c2ccc(Cl)c(Cl)c2)oc1-c1ccoc1 — higher, 222 to 223 °C
- COc1ccc(N2CCOCC2)c2sc(NC(=O)N(C)C3CCCCCC3)nc12 — lower, 198 to 200 °C
- CC(C)(C)[C@H]1N(c2ccc(C#N)c3ccccc23)C(=O)[C@@H]2C[C@@H](O)CN21 — lower, 155 to 157 °C
- O=C1NC(=S)SC1=Cc1ccc2c(c1)N(OCc1ccccc1)C(=O)CO2 — higher, > 300 °C
- COc1ccc(C(=O)CC(=O)C(C)(C)C)cc1OC — lower, 52.3 to 53.3 °C
- CCN1CNC(=N[N+](=O)[O-])N(Cc2ccc(Cl)nc2)C1 — lower, 124 to 125 °C
- CN(C)C=Cc1cccc(CC(=O)O)c1[N+](=O)[O-] — lower, 124 to 126 °C
- C#CC12CC3CC(CC(C3)C1)C2 — lower, 80 to 82 °C
- C=CCN(C(=O)n1oc(C)c(Cl)c1=O)c1ccc(Cl)cc1Cl — lower, 90.5 to 92 °C
- CON(C)C(=O)c1ocnc1C — lower, 59 to 60 °C
- CCCN(CCC)C(=O)Cn1c(=O)[nH]c2cnc(-c3ccc(Cl)cc3)nc21 — lower, 177 to 178 °C
- COC(=O)Cc1c(C)n(Cc2ccc(Cl)cc2)c2ccc(OCc3ccc4ccccc4n3)cc12 — lower, 132 to 134 °C
- CN1C2C=C(c3c[nH]c4ccc([N+](=O)[O-])cc34)CC1CC2 (configuration not stated) — higher, 234 to 236 °C
- COC(=O)NNc1ccc(C)c2c1OC(C)C2 (configuration not stated) — lower, 62 to 65 °C
- OCCC#CC1CCC(COc2ccc(F)cc2)O1 (mixture of isomers) — lower, 76 °C
- O=C(NCC1CCCCC1)c1c(Cl)ccc2nc(CCCCc3nnn[nH]3)ccc12 — lower, 90 to 93 °C
- CCCCCCCCCCCCCCCCCCCCC(COC(C)=O)(COC(C)=O)NC(C)=O — lower, 93 to 94 °C
- CC(C)(C)NC(=O)c1nn(-c2ccc(Cl)cc2)c2c1C1CCC2CC1 — lower, 198 to 200 °C
- Cn1nccc1[C@H](O)c1ccccc1 — lower, 81 to 83 °C
- COC(COC1CC2C3CCC4=CC(=O)CCC4(C)C3(F)C(O)CC2(C)C1(O)C(=O)CO)OC (configuration not stated) — lower, 192 to 194 °C
- COC(=O)c1cc(-c2nnnn2C)c(C(=O)OC)s1 — lower, 149 to 151 °C
- CCOC(=O)CCNC(=O)C(Cc1ccc(-c2ccccc2)cc1)N(CP(=O)(O)O)C(OC(=O)CC)C(C)C (configuration not stated) — lower, 154 to 158 °C
- O=C(O)CCCCc1cc(O)c(O)c([N+](=O)[O-])c1 — lower, 135 to 138 °C
- c1ccc(Cc2ccc3c(c2)nc2n3CCCS2)cc1 — lower, 145 to 147 °C
- C=CCN(CC)C(=O)n1cnc(S(=O)CC)n1 (configuration not stated) — lower, 59 to 61 °C
- COc1cccc(C(=O)OC2CC3C(=O)NC4(C(=O)NS(=O)(=O)C5CC5)CC4C=CCOCCCC(NC(=O)OC(C)(C)C)C(=O)N3C2)c1 (configuration not stated) — lower, 149 to 151 °C
- COC(=O)CCCc1cc2cc(Cl)ccc2n1S(=O)(=O)c1ccc2c(c1)OCCN2C — lower, 139 to 140 °C
- Cc1c(Cc2cccc(C(=O)O)c2)n(S(=O)(=O)c2cccc(C(C)(C)C)c2)c2ccc(C(F)(F)F)cc12 — lower, 194 °C
